Results as given in PMC12751000, “Dual Agonist/Antagonist Modulation of α9-Containing Nicotinic Acetylcholine Receptors by 2‑Ammoniumethyl Ethers of Stilbenol and Stilbenol Analogues” (Journal of Medicinal Chemistry, 2025).
Entries after “also recorded” stand apart in the source; their conditions may differ. Where two headings read alike, the source gives them in different places.

Tests used:
Type in all cases: cell-based
[1] = system: BzATP-induced release of IL-1β from human monocytic THP-1 cells; assay: BzATP-induced IL-1β release by LPS-primed human monocytic THP-1 cells (ELISA); details: for Effect on the inhibitory effect of ACh on BzATP-induced IL-1β release: LPS 1 μg/mL 5 h, BzATP 100 μM 40 min; for Effect on BzATP-induced IL-1β release in the absence of ACh: LPS-primed THP-1
Experimental: THP-1 cells were primed with lipopolysaccharide (LPS; 1 μg/mL, 5 h) followed by stimulation with the P2X7 receptor agonist BzATP (2′/3′-O-(4-benzoylbenzoyl)-adenosine-5′-triphosphate, tri(triethylammonium) salt) for 40 min to induce IL-1β release, which was quantified by ELISA.
Experiments on human monocytic THP-1 cells (German Collection of Microorganisms and Cell Cultures, Braunschweig, Germany, Cat# ACC16) were performed as described before. […] The supernatants were collected and stored for later IL-1β measurements using the Human IL-1β/IL-1F2 DuoSet ELISA from R&D Systems (Minneapolis MN, USA, Cat# DY201). Cell viability was assessed by measuring lactate dehydrogenase (LDH) activity in the supernatants using the CytoTox 96 Non-Radioactive Cytotoxicity Assay (Promega, Madison WI, USA; Cat# G1780). LDH activities were expressed as a percentage of total LDH activity from lysed control cells. Data on the BzATP-induced IL-1β release and LDH activity were analyzed using SPSS (Version 29.0.2.0, IBM, Armonk, NY, United States) and visualized using Inkscape version 0.48.5 r10040 (Free and Open Source Software licensed under the GPL). The data were analyzed first by the Friedman test.

hα9α10 nAChRs [2] = biological target: T1, hα9α10 nAChRs (Homo sapiens, UniProt Q9GZZ6+Q9UGM1); assay: Two-electrode voltage clamp, inhibition of ACh-evoked currents at hα9α10 nAChRs expressed in Xenopus laevis oocytes; details: for IC50 / n H (Hill coefficient of inhibition): 6 μM ACh; for IC50: 5 min preincubation with compound, holding potential −80 mV
T1 construct: host or cells: Xenopus laevis oocytes, cRNA-injected (α9:α10 cRNA ratio 1:1)
T1 sequence (Q9UGM1 26-479 limits assumed): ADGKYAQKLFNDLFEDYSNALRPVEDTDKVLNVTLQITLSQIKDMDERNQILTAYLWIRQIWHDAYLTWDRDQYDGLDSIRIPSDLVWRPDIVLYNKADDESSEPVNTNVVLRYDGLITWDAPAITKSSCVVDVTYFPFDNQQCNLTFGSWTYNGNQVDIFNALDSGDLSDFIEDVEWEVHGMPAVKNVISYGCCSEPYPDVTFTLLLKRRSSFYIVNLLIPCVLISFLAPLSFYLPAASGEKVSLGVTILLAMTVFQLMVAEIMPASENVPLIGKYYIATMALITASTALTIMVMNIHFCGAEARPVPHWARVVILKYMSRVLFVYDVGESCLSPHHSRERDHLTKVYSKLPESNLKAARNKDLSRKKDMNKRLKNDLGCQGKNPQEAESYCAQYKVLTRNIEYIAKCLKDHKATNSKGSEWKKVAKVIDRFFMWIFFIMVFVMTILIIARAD
T1 sequence (Q9GZZ6 25-450): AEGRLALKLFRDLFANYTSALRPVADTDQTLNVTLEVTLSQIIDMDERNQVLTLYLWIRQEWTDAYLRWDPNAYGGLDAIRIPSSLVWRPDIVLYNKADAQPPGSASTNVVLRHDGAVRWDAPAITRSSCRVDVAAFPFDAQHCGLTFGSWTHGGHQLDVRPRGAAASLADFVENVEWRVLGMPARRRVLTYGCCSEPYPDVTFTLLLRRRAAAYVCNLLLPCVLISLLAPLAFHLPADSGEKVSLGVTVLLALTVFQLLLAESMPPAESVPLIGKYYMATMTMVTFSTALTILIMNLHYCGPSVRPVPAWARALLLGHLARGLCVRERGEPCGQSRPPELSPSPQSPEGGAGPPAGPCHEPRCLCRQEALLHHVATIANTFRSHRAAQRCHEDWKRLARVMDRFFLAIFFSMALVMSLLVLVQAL
From the text: (§1) The protocols were approved by the Animal Ethics Committees of the Victor Chang Cardiac Research Institute, Sydney, and the University of Wollongong (project number AE 20/17). Human α9 and α10 nAChR clones were obtained from OriGene (Rockville, MD, USA) and subcloned into the pT7TS vector. The human α7 nAChR clone, in the plasmid pMXT, was kindly provided by J. Lindstrom (University of Pennsylvania, USA). Constructs of human nAChR subunits were linearized and used for in vitro cRNA transcription with the SP6/T7 mMessage mMachine transcription kit (AMBION, Forster City, CA, USA).
(§2) The cRNA concentration was verified spectrophotometrically and by gel electrophoresis.
(§3) Electrophysiological recordings were conducted 2–5 days after cRNA injection using a HiClamp automated two-electrode voltage-clamp screening system (MultiChannel Systems GmbH, Reutlingen, Germany) with a holding potential of –80 mV. To prevent the activation of endogenous Ca^2+-activated chloride channels due to the Ca^2+ permeability of α9-containing nAChRs, oocytes were preincubated with 100 μM BAPTA-AM for approximately 3 h.
For concentration–response experiments assessing modulation of ACh-evoked responses, oocytes were initially superfused with ND96 or ND115 solution, depending on the receptor subtype. […] After ACh application, a 3 min washout was performed. Oocytes were then incubated with the test compound for 5 min, followed by coapplication of the compound and ACh in a continuously flowing bath solution. All compounds were prepared in ND96 or ND115 with 0.1% bovine serum albumin (BSA).

hα9α10 nAChRs [3] = biological target: T1, hα9α10 nAChRs; assay: Two-electrode voltage clamp, compound-evoked currents (compound applied alone) at hα9α10 nAChRs in Xenopus laevis oocytes
From the text: as §1, §2, §3
Concentration–response experiments assessing compound-evoked currents were performed by initially superfusing α9-containing nAChRs oocytes with ND115 solution. Test compounds were then applied at concentrations ranging from 300 pM to 30 μM, followed by a 3 min washout period.

hα9 nAChRs [4] = biological target: T2, hα9 nAChRs (Homo sapiens, UniProt Q9UGM1); assay: Two-electrode voltage clamp, inhibition of ACh-evoked currents at hα9 nAChRs in Xenopus laevis oocytes; details: for n H (Hill coefficient of inhibition) / IC50: 50 μM ACh; for IC50: 5 min preincubation
T2 construct: host or cells: Xenopus laevis oocytes, cRNA-injected
T2 sequence (Q9UGM1 26-479 limits assumed): as the sequence (Q9UGM1 26-479 limits assumed) above

hα9 nAChRs [5] = biological target: T2, hα9 nAChRs; assay: Two-electrode voltage clamp, compound-evoked currents at hα9 nAChRs in Xenopus laevis oocytes; details: for n H (Hill coefficient of activation) / EC50: compound applied alone; for EC50: read-out: EC50
hα7 nAChRs [6] = biological target: T3, hα7 nAChRs (Homo sapiens, UniProt P36544); assay: Two-electrode voltage clamp, inhibition of ACh-evoked currents at hα7 nAChRs in Xenopus laevis oocytes; details: for n H (Hill coefficient of inhibition) / IC50: 100 μM ACh; for IC50: 5 min preincubation
T3 construct: host or cells: Xenopus laevis oocytes, cRNA-injected (10 ng)
T3 sequence (P36544 23-502): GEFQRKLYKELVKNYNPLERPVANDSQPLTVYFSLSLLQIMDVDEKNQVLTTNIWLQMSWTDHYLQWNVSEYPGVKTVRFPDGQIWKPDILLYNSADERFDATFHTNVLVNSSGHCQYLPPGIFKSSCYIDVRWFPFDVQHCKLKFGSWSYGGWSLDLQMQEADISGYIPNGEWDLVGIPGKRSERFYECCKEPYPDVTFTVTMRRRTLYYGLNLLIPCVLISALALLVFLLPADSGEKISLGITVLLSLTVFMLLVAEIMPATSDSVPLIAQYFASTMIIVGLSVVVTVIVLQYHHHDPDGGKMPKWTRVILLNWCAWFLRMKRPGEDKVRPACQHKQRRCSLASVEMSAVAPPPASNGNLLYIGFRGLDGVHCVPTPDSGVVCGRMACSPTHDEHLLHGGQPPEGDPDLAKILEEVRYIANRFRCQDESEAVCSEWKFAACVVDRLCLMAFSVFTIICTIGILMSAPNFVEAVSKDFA

hα7 nAChRs [7] = biological target: T3, hα7 nAChRs; assay: Two-electrode voltage clamp, compound-evoked currents at hα7 nAChRs in Xenopus laevis oocytes; details: compound applied alone
Experimental: Additionally, five compounds of the series were tested on the homomeric hα7 and hα9 nAChRs.
as §1, §2, §3

[8] = compound applied alone (300 pM to 30 μM), normalized to response at highest concentration, read-out: EC50

SMILES	IC50 (hα9α10 nAChRs [2]) [nM]	EC50 (hα9α10 nAChRs [3]; [8]) [nM]	IC50 ratio to Cpd 1 (hα9α10 nAChRs [2])	n H (Hill coefficient of inhibition) (hα9α10 nAChRs [2])	EC50 ratio to Cpd 1 (hα9α10 nAChRs [3])	n H (Hill coefficient of activation) (hα9α10 nAChRs [3]; compound applied alone)	further results
CC(=O)OCC[N+](C)(C)C [ACh, acetylcholine]							Effect on BzATP-induced IL-1β release ([1]; ACh 10 μM applied shortly before BzATP): significantly reduced
CC[N+](CC)(CC)CCOc1ccc(CCc2ccccc2)cc1 [Compound 4]	189	1140					
C[N+](C)(CCOc1ccc(/C=C/c2ccccc2)cc1)C1CCOCC1.[I-] [Compound 6, (E)-N,N-Dimethyl-N-(2-(4-styrylphenoxy)ethyl)tetrahydro-2H-pyran-4-aminium Iodide]	55	185	0.9	2.1	0.5	2.4	
C[N+](C)(CCOc1ccc(/C=C/c2ccccc2)cc1)C1CCCC1.[I-] [Compound 7, (E)-N,N-Dimethyl-N-(2-(4-styrylphenoxy)ethyl)cyclopentanaminium Iodide]	22.1	175	0.4	1.7	0.5	1.6	
C[N+](C)(CCOc1ccc(/C=C/c2ccccc2)cc1)C1CCCCCC1.[I-] [Compound 8, (E)-N,N-Dimethyl-N-(2-(4-styrylphenoxy)ethyl)cycloheptanaminium Iodide]	124	300	2.1	2.6	0.8	1.6	
C[N+](C)(CCOc1ccc(/C=C/c2ccccc2)cc1)c1ccccc1.[I-] [Compound 9, (E)-N,N-Dimethyl-N-(2-(4-styrylphenoxy)ethyl)benzenaminium Iodide]	95.1	474	1.6	2.1	1.2	3.3	
C[N+](C)(CCOc1ccc(/C=C/c2ccccc2)cc1)Cc1ccccc1.[Br-] [Compound 10, (E)-N-Benzyl-N,N-dimethyl-2-(4-styrylphenoxy)ethanaminium Bromide]	124	448	2.1	2.1	1.2	2.4	
C[N+](CCOc1ccc(/C=C/c2ccccc2)cc1)(C1CCCC1)C1CCCC1.[I-] [Compound 12, (E)-N-Cyclopentyl-N-methyl-N-(2-(4-styrylphenoxy)ethyl)cyclopentanaminium Iodide]	378	1710	6.3	3.0	4.4	1.2	
C[N+](CCOc1ccc(/C=C/c2ccccc2)cc1)(Cc1ccccc1)Cc1ccccc1 [Compound 13]	1110	7040					EC50 (hα9α10 nAChRs [3]; compound applied alone, read-out: EC50): > 5000 nM
C[N+](C)(CCCOc1ccc(/C=C/c2ccccc2)cc1)C1CCCCC1.[I-] [Compound 14, (E)-N,N-Dimethyl-N-(3-(4-styrylphenoxy)propyl)cyclohexanaminium Iodide]	98.9	511	1.6	2.1	1.3	3.0	
C[N+](C)(CCCCOc1ccc(/C=C/c2ccccc2)cc1)C1CCCCC1.[I-] [Compound 15, (E)-N,N-Dimethyl-N-(4-(4-styrylphenoxy)butyl)cyclohexanaminium Iodide]	124	1470	2.1	2.0	3.8	1.4	
C[N+](C)(CCOc1ccc(CCc2ccccc2)cc1)C1CCCCC1.[I-] [Compound 16, N,N-Dimethyl-N-(2-(4-phenethylphenoxy)ethyl)cyclohexanaminium Iodide]	168	482	2.8	3.8	1.3	3.2	IC50 ratio to Cpd 1 (hα9 nAChRs [4]): 0.7; n H (Hill coefficient of inhibition) (hα9 nAChRs [4]): 1.5; IC50 (hα9 nAChRs [4]): 133 nM; EC50 ratio to Cpd 1 (hα9 nAChRs [5]): 1.1; n H (Hill coefficient of activation) (hα9 nAChRs [5]): 2.4; EC50 (hα9 nAChRs [5]): 983 nM; IC50 ratio to Cpd 1 (hα7 nAChRs [6]): 1.0; n H (Hill coefficient of inhibition) (hα7 nAChRs [6]): 1.8; IC50 (hα7 nAChRs [6]): 434 nM; EC50 (hα7 nAChRs [7]): no agonist activity; Effect on the inhibitory effect of ACh on BzATP-induced IL-1β release ([1]; compound 100 pM + ACh 10 μM): efficiently antagonized the inhibitory effect of ACh; Effect on BzATP-induced IL-1β release in the absence of ACh ([1]; compound 100 pM): minor reduction; Effect on BzATP-induced IL-1β release in the absence of ACh ([1]; compound 100 nM): effectively and significantly inhibited
CC[N+](CC)(CC)CCOc1ccc(-c2ccccc2)cc1 [Compound 17]	117	479	1.9	1.4	1.2	3.3	
CC[N+](CC)(CC)CCOc1ccc(C#Cc2ccccc2)cc1 [Compound 18]	89	550	1.5	1.8	1.4	2.2	
CC[N+](CC)(CC)CCOc1ccc(OCc2ccccc2)cc1 [Compound 19]	207	1020	3.4	1.6	2.6	1.9	
CC[N+](CC)(CC)CCOc1ccc(COc2ccccc2)cc1 [Compound 20]	139		2.3	1.7 (1.6–1.8) [8]			EC50 (hα9α10 nAChRs [3]; compound applied alone (300 pM to 30 μM), normalized to response at highest concentration): failed to activate; also recorded: failed to evoke currents; also recorded: No activity
C[N+](C)(CCOc1ccc(OCc2ccccc2)cc1)C1CCCCC1.[I-] [Compound 21, N-(2-(4-(Benzyloxy)phenoxy)ethyl)-N,N-dimethylcyclohexanaminium Iodide]	39.1	338	0.6	1.7	0.9	3.7	IC50 ratio to Cpd 1 (hα9 nAChRs [4]): 0.9; n H (Hill coefficient of inhibition) (hα9 nAChRs [4]): 1.6; IC50 (hα9 nAChRs [4]): 171 nM; EC50 ratio to Cpd 1 (hα9 nAChRs [5]): 1.0; n H (Hill coefficient of activation) (hα9 nAChRs [5]): 2.2; EC50 (hα9 nAChRs [5]): 905 nM; IC50 ratio to Cpd 1 (hα7 nAChRs [6]): 1.0; n H (Hill coefficient of inhibition) (hα7 nAChRs [6]): 1.5; IC50 (hα7 nAChRs [6]): 419 nM; EC50 (hα7 nAChRs [7]): No activity; Effect on the inhibitory effect of ACh on BzATP-induced IL-1β release ([1]; compound 100 pM + ACh 10 μM): efficiently antagonized the inhibitory effect of ACh; Effect on BzATP-induced IL-1β release in the absence of ACh ([1]; compound 100 pM): minor reduction; Effect on the inhibitory effect of ACh on BzATP-induced IL-1β release ([1]; compound 100 nM + ACh 10 μM): mild antagonistic effects; Effect on BzATP-induced IL-1β release in the absence of ACh ([1]; compound 100 nM): effectively and significantly inhibited
